The target of the assay is Cyclin-dependent kinase 2 (Homo sapiens, UniProt P24941). The experiment in a line: Inhibition Assay. As for the experimental part: The inhibitory against activated CDK2-cyclin A2 complex was determined by using the ADP Quest fluorescence assay from (DiscoveRX, Fremont, CA)

Take `Cc1ccc(N=Nc2c(O)ccc3nn[nH]c23)cc1`: the IC50 was over 150 µM.
Molecule `O=C1c2ccccc2C(=O)C1c1ccccn1` showed a half-inhibitory concentration (IC50) of 46 µM.
Next, `Nc1ccc2c(c1Cl)C(=O)c1ccc(N)c(Cl)c1C2=O` [2,6-bis(azanyl)-1,5-bis(chloranyl)anthracene-9,10-dione]: over 150 µM; `O=c1cc(-c2ccc(O)cc2)oc2c(O)c(O)c(O)c(O)c12` [2-(4-hydroxyphenyl)-5,6,7,8-tetrakis(oxidanyl)chromen-4-one]: over 150 µM.
The molecule `Oc1ccc(/N=C/c2c(O)ccc3ccccc23)cc1` [Hit compound, 3] returned an IC50 of over 150 µM.
As for `O=c1[nH]c(O)ccc1N=Nc1ccc(S(=O)(=O)O)cc1` [Hit compound, 4], half-maximal inhibition (IC50) required 45 µM.
In turn, `COCc1cc(/N=N/c2cccc(S(N)(=O)=O)c2)c2ccccc2c1N` [Hit compound, 5] showed an IC50 of 53 µM.
Take `Cc1ccc(/N=N/c2ccc(N)cc2C)c(S(N)(=O)=O)c1` [Hit compound, 7]: the IC50 was over 150 µM.
For `Nc1cc([N+](=O)[O-])ccc1Nc1ccc(O)cc1` [Hit compound, 12] the value was over 150 µM.

For the origin of these results see BindingDB's records for doi:10.1002/cbic.201200316 (Moffitt Cancer Center, 2012).
